Data taken from patent US5527900A, “N3-alkyl-2',5'-0-silylated-3'-spiro-thymidine derivatives” (Stitching Rega VZW, priority 1991, dated 1996).
Converted amounts (≈) assume the structure as drawn. Where two headings read alike, the source gives them in different places.

How the values were obtained:
[1] = test system: HIV-1 (HTLV-IIIB); experiment: Anti-retrovirus activity: inhibition of HIV-1-induced cytopathogenicity in MT-4 cells; assay type: cell-based; settings: for EC50: Human immunodeficiency virus 1, IIIB; for S.I. (Selectivity Index): Table 1, CC50/EC50, MT-4 cells
Excerpt: The viruses used were moloney murine sarcoma virus (MSV), HIV-1 (strain HTLV-IIIB, kindly provided by R. C. Gallo and M. Popovic, National Cancer Institute, Bethesda, Md.), HIV-2 (strain LAV-2(ROD)), kindly provided by L. Montagnier (Pasteur Institute, Paris, France), simian immunodeficiency virus (SIV) (strain SIVMAC251, kindly provided by C. Bruck, RIT-Smith-Kline, Rixensart, Belgium).
(§1) In order to evaluate the inhibitory effects against retrovirus-induced cytopathogenicity in MT-4cells, said cells (5×10^5 cells/ml) were suspended in fresh culture medium and infected with HIV-1, HIV-2 or SIOV at 100 times the cell culture infective dose-50 (CCID50) per ml cell suspension (1 CCID50 being the dose infective for 50% of the cell cultures). Then, 100 μl of the infected cell suspension were transferred to microplate wells, mixed with 100 μl of the appropriate dilutions of the test compounds, and further incubated at 37° C. After 5 days, the number of viable cells was determined in a blood cell-counting chamber by trypan blue staining for both virus-infected and mock-infected cell cultures.

[2] = Cytotoxicity for mock-infected MT-4 cells; settings: human, mt-4 cells
Description: as §1

[3] = test system: MT-4 cells; experiment: Cytotoxicity for mock-infected MT-4 cells; settings: for cytotoxicity to MT-4 cells (in words): at 100 μg/ml
Description: as §1

[4] = test system: HIV-1; experiment: Antiviral activity upon delayed addition to HIV-1-infected MT-4 cells; assay type: cell-based; settings: for decrease of antiviral activity on delayed addition: addition delayed by 17-24 hours, data not shown; for antiviral activity on delayed addition: addition delayed by 41 to 48 hours
Description: as §1
Mt-4 cells were suspended in culture medium, infected with HIV-1 and brought into microplate wells as described above. […] After 5 days, the number of viable cells was determined and the EC50 and CC50 values for the test compounds were defined as described in example 1.

[5] = test system: MT-4 cell DNA synthesis; experiment: Incorporation of radiolabeled precursors into MT-4 cell DNA; assay type: cell-based; settings: Homo sapiens
Excerpt: (§2) The radiolabeled nucleosides [methyl-^3 H]dThd (specific radioactivity: 40 Ci/mmol), [5-^3 H]dUrd (specific radioactivity: 27 Ci/mmol), [5-^3 H]dCyc (specific radioactivity: 18.2 Ci/mmol) and the radiolabeled amino acid L-[4,5-^3 H]leucine (specific radioactivity: 52 Ci/mmol were derived from the Radiochemcial Centre (Amersham, England); [5-^3 H]Urd (specific radioactivity: 21 Ci/mmol) and [5-^3 H]Cyd (specific radioactivity: 21 Ci/mmol) and were obtained from Moravek Biochemicals Inc. (Brea, Calif.)
(§3) The incorporation of [methyl-^3 H]dThd, [5-^3 H]dUrd, [5-^3 H]dCyd, [5-^3 H]Urd, [5-^3 H]Cyd and L-[4,5-^3 H]1eu into TCA-insoluble MT-4 cell material was measured in wells of a 96-well microtiter plate (Falcon-3072, Becton-Dickinson, New Jersey). To each well were added 10^5 MT-4 cells, 0.25 μCi of the radiolabeled precursor and a given amount of test compound. The cells were allowed to proliferate for 20 to 24 hr at 37° C. in a humidified, CO2 -controlled atmosphere. At the end of this incubation period, the contents of the wells (200 μl) were brought onto 25-mm glass fiber filters (type A/E, Gelman Instrument Company, Ann Arbor, Mich.), and mounted on a Millipore 3025 sampling manifold apparatus. The filters were washed twice with 2 ml and 5 ml cold NaCl/Pi (phosphte-buffered saline), twice with 2 and 5 ml cold 10% trichloroacetic acid (TCA), twice with 5 and 7.5 ml cold 5% TCA, and twice with 1 ml cold ethanol.

[6] = test system: MT-4 cell RNA synthesis; experiment: Incorporation of radiolabeled precursors into MT-4 cell RNA; assay type: cell-based; settings: Homo sapiens
Excerpt: as §2, §3

[7] = test system: MT-4 cell protein synthesis; experiment: Incorporation of radiolabeled leucine into MT-4 cell protein; assay type: cell-based; settings: Homo sapiens
Excerpt: as §2, §3

[8] = test system: MT-4 cell DNA, RNA or protein synthesis; experiment: Incorporation of radiolabeled DNA, RNA or protein precursors into TCA-insoluble MT-4 cell material (summary in words); assay type: cell-based; settings: for inhibition of incorporation of dThd, dUrd, dCyd, Urd, Cyd or leucine: at 100 μg/ml
Excerpt: as §2, §3

[9] = Partition coefficient (Pa) between 1-octanol and 10 mM potassium phosphate buffer; assay type: physicochemical; settings: 1-octanol / 10 mM potassium phosphate buffer, pH 7.5, 50 μM
Description: Partition of the test compounds between 1-octanol (Merck, Darmstadt, Germany) and 10 mM potassium phosphate buffer, pH, 7.5 (Merck), was measured as described in Balzarini et al., Biochem, Biophys. Res. Commun. 158: 413-422 (1989). Briefly, a 50 μM concentration of the test compound in potassium phosphate buffer was thoroughly mixed with an equal volume of 1-octanol for 30 min at room temperature. Then, the mixture was further equilibrated at room temperature and UV absorption was measured for the aqueous and alcoholic liquid phases. The partition coefficient (Pa) was calculated as the ratio of the compound concentration present in the 1-octanol phase to the compound concentration present in the aqueous phase.

[10] = test system: HIV-1 mutant strains; experiment: Resistance of HIV-1 strains selected against compounds 5, 6 and 7; assay type: cell-based
[11] = test system: MT-4 cells; experiment: Cytotoxicity for MT-4 cells depending on exposure time; assay type: cell-based
Description: The toxicity of test compounds upon a 2-hr incubation period was determined by exposing MT-4 cells (3.5×10^5 cells/ml) to 100, 20, 4, 0.8 or 0.16 μg/ml of the test compounds for 2 hours at 37° C. Subsequently the cells were washed with culture medium. The pretreated cells were seeded in microplate wells at 70×10^3 cells/200 μl-well and allowed to grow for 3 days at 37° C. Control cultures received similar concentrations of the test compounds during the whole incubation period. Then, cells were counted in a Coulter counter (Harpenden Hertz, England) and the CC50 values were determined for each compound.
Mt-4 cells were suspended in culture medium, infected with HIV-1 and brought into microplate wells as described above.

[12] = test system: HIV-2 strain (EHO); experiment: Activity against HIV-2 strain EHO; assay type: cell-based
[13] = AIDS patients; cited from earlier work
[14] = target: reverse transcriptase enzyme of the TSAO-resistant HIV-1 strains (HIV-1 M:B_HXB2R, UniProt P04585, E725K); assay type: binding; settings: Glu-138 to Lys
[15] = MT4, read-out: 50% effective concentration (EC50)
[16] = MT4, MT-4 cells, 20 to 24 hr, read-out: IC50, [5-3H]dCyd incorporation
[17] = MT4, MT-4 cells, 20 to 24 hr, read-out: IC50, [5-3H]dUrd incorporation
[18] = MT4, MT-4 cells, 20 to 24 hr, read-out: IC50, [methyl-3H]dThd incorporation
[19] = MT4, MT-4 cells, 20 to 24 hr, read-out: IC50, [5-3H]Cyd incorporation
[20] = MT4, MT-4 cells, 20 to 24 hr, read-out: IC50, [5-3H]Urd incorporation
[21] = MT4, MT-4 cells, 20 to 24 hr, read-out: IC50, L-[4,5-3H]leucine incorporation

Row | Compound | EC50 ([1]; MT4, 120 h) | S.I. (Selectivity Index) [1] | CC50 at 120 h [2] | cytotoxicity to MT-4 cells (in words) [3] | antiviral activity on delayed addition [4] | IC50 [5, 16] | IC50 [5, 17] | IC50 [5, 18] | IC50 [6, 19] | IC50 [6, 20] | IC50 [7, 21] | inhibition of incorporation of dThd, dUrd, dCyd, Urd, Cyd or leucine [8] | presence in the n-octanol phase compared to the aqueous phase [9] | logD at 50 µM ([9]; room temperature) | amino acid change in reverse transcriptase of HIV-1 strains selected for resistance [10] | further results
1 | Cc1cn([C@@H]2O[C@H](CO[Si](C)(C)C(C)(C)C)[C@@]3(OS(=O)(=O)C=C3N)[C@H]2O[Si](C)(C)C(C)(C)C)c(=O)n(C)c1=O [Compound 6] | 0.034 µg/mL (≈ 0.0563 µM) | 4088 | 139 µg/mL (≈ 230 µM) | not cytotoxic | almost totally lost | > 100 µg/mL | > 100 µg/mL | > 100 µg/mL | > 100 µg/mL | > 100 µg/mL | > 100 µg/mL | did not markedly inhibit | more than 95% | > 1.3 | glutamic acid change at position 138 to lysine | Selectivity Index [1]: 4088; EC50 [1, 15]: 0.034 µg/mL (≈ 0.0563 µM); decrease of antiviral activity on delayed addition [4]: 10 fold
2 | Cc1cn([C@@H]2O[C@H](CO[Si](C)(C)C(C)(C)C)[C@@]3(OS(=O)(=O)C=C3N)[C@H]2O[Si](C)(C)C(C)(C)C)c(=O)[nH]c1=O [Compound 5, {1-[2', 5'-Bis-O-(tert-butyldimethylsilyl)-β-D-ribofuranosyl]thymine}-3'-spiro-5"-{4"-amino-1",2"-oxathiole-2", 2"-dioxide}] |  |  | 7.7 µg/mL (≈ 13.1 µM) | not cytotoxic | almost totally lost |  |  |  |  |  |  |  | more than 95% | > 1.3 | glutamic acid change at position 138 to lysine | decrease of antiviral activity on delayed addition [4]: 10 fold; toxicity for MT-4 cells depending on contact time ([11]; time of contact with the cells varied): not affected by the time that the compound had remained in contact with the cells; IC50 ([5]; MT4, read-out: IC50, [5-3H]dCyd incorporation): 115 µg/mL (≈ 195 µM); IC50 ([5]; MT4, read-out: IC50, [5-3H]dUrd incorporation): 9.1 µg/mL (≈ 15.4 µM); IC50 ([5]; MT4, read-out: IC50, [methyl-3H]dThd incorporation): 13 µg/mL (≈ 22 µM); IC50 ([6]; MT4, read-out: IC50, [5-3H]Cyd incorporation): 8 µg/mL (≈ 13.6 µM); IC50 ([6]; MT4, read-out: IC50, [5-3H]Urd incorporation): 11 µg/mL (≈ 18.6 µM); IC50 ([7]; MT4, read-out: IC50, L-[4,5-3H]leucine incorporation): 11.6 µg/mL (≈ 19.7 µM)
3 | CC(C)(C)[Si](C)(C)OC[C@H]1O[C@@H](n2ccc(N)nc2=O)[C@H](O[Si](C)(C)C(C)(C)C)[C@]12OS(=O)(=O)C=C2N [Compound 14, {1-[2', 5'-Bis-O-(tert-butyldimethylsilyl)-β-D-ribofuranosyl]-cytosine}-3'-spiro-5"-{4"-amino-1",2"-oxathiole-2",2"-dioxide}] | 0.439 µg/mL (≈ 0.764 µM) | ≥ 456 | ≥ 200 µg/mL | not cytotoxic |  | > 100 µg/mL | > 100 µg/mL | > 100 µg/mL | > 100 µg/mL | > 100 µg/mL | > 100 µg/mL | did not markedly inhibit | more than 95% | > 1.3 |  | activity against HIV-2 strain (EHO) [12]: inactive
4 | Cc1cn([C@H]2C[C@H](N=[N+]=[N-])[C@@H](CO)O2)c(=O)[nH]c1=O [AZT, 3'-Azido-3'-deoxythymidine, reference compound] |  |  |  |  | almost totally lost |  |  |  |  |  |  |  |  |  |  | cytostatic activity depending on exposure time ([11]; data not shown): less cytostatic the shorter its exposure time to MT-4 cells; partition coefficient (Pa) ([9]; room temperature): 1.12; toxic side effects on long-term treatment [13]: bone marrow suppression
5 | Cc1cn([C@@H]2O[C@H](CO[Si](C)(C)C(C)(C)C)[C@@]3(OS(=O)(=O)C=C3N)[C@H]2O[Si](C)(C)C(C)(C)C)c(=O)nc1N [Compound 16, {1-[2', 5'-Bis-O-(tert-butyldimethylsilyl)-β-D-ribofuranosyl]-5-methyl-cytosine}-3'-spiro-5"-{4"-amino-1",2"-oxathiole-2",2"-dioxide}] | 0.072 µg/mL (≈ 0.122 µM) | 246 | 17.7 µg/mL (≈ 30.1 µM) | not cytotoxic |  | 14 µg/mL (≈ 23.8 µM) | 9.9 µg/mL (≈ 16.8 µM) | 14 µg/mL (≈ 23.8 µM) | 11 µg/mL (≈ 18.7 µM) | 8.9 µg/mL (≈ 15.1 µM) | 13 µg/mL (≈ 22.1 µM) | did not markedly inhibit |  |  |  | inhibition of MT-4 cell proliferation (in words) [3]: inhibitory to MT-4 cell proliferation; activity against HIV-2 strain (EHO) [12]: inactive; inhibition of incorporation of precursors relative to inhibition of MT-4 cell proliferation ([8]; Table 2 discussion): equally inhibitory; preferential inhibition of incorporation of one precursor over the others ([8]; Table 2 discussion): neither
6 | Cc1ccnc2c1NC(=O)c1cccnc1N2C1CC1 [Nevirapine, reference compound] |  |  |  |  |  |  |  |  |  |  |  |  |  |  |  | affinity of mutated reverse transcriptase [14]: not for other HIV-1-specific compounds
7 | CCn1c(=O)c(C)cn([C@@H]2O[C@H](CO[Si](C)(C)C(C)(C)C)[C@@]3(OS(=O)(=O)C=C3N)[C@H]2O[Si](C)(C)C(C)(C)C)c1=O [Compound 7, {1-[2', 5'-Bis-O-(tert-butyldimethylsily)-62 -D-ribofuranosyl]-3-N-ethyl-thymine}-3'-spiro-5"-{4"-amino-1", 2"-oxathiole-2",2"-dioxide}] | 0.073 µg/mL (≈ 0.118 µM) | 1000 | 73 µg/mL (≈ 118 µM) |  |  |  |  |  |  |  |  |  | more than 95% | > 1.3 | glutamic acid change at position 138 to lysine | Selectivity Index [1]: 1000; EC50 [1, 15]: 0.073 µg/mL (≈ 0.118 µM)
